Experimental data taken from ChEMBL document CHEMBL1124854, “Porphyrin dimers as photosensitizers in photodynamic therapy” (1990).

Tests used:
Assay type in all cases: functional
[1] = tested on: Mus musculus; assay: In vivo photosensitizing activity against subcutaneously implanted SMT-F tumor in DBA/2 mice at the dose of 2.1mg/Kg, day 1-2
[2] = tested on: Mus musculus; assay: In vivo photosensitizing activity against subcutaneously implanted SMT-F tumor in DBA/2 mice at the dose of 2.1mg/Kg, day 7
[3] = tested on: Mus musculus; assay: In vivo photosensitizing activity against subcutaneously implanted SMT-F tumor in DBA/2 mice at the dose of 4.2mg/Kg, day 1-2

Compound | Tumor response [1] [%] | Tumor response [2] [%] | Tumor response [3] [%]
C=CC1=C(C)c2cc3nc(ccc(CCC(=O)OC)c(C)c(NC)cc4[nH]c(cc1n2)c(C)c4C(C)OC(C)c1c(C)cc2[nH]c(cc4nc(cc5nc(cc(N)c1C)C(C(C)O)=C5C)C(C)=C4CCC(=O)OC)c(CCC(=O)OC)c2C)C(CCC(=O)OC)=C3C (centres undefined) | 100 | 100 | –
CNc1cc2[nH]c(cc3nc(cc4nc(ccc(CCC(=O)OC)c1C)C(CCC(=O)OC)=C4C)C(C)=C3C(C)O)c(C)c2C(C)OC(C)c1c(C)cc2[nH]c(cc3nc(cc4nc(cc(N)c1C)C(C(C)O)=C4C)C(C)=C3CCC(=O)OC)c(CCC(=O)OC)c2C (centres undefined) | – | – | 0
CNc1cc2[nH]c(cc3nc(cc4nc(ccc(CCC(=O)OC)c1C)C(CCC(=O)OC)=C4C)C(C)=C3C(C)O)c(C)c2C(C)OC(=O)CCC1=C(C)c2cc(C)c(C(C)O)c(C)c(N)cc3nc(cc4[nH]c(cc1n2)c(CCC(=O)OC)c4C)C(C)=C3C(C)O (centres undefined) | – | – | 0
